Structures are written as SMILES. Where only a bound is given, the exact number is not on record here.

Data set [1] in a line: Caco-2 permeability assay. The following applies: human. In kind it is in vitro ADME. The method, boiled down: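 Bidirectional transport across Caco-2 monolayers in HBSS/10.0 mM HEPES pH 7.40, test compound at 2.00 μM, DMSO <1%, 2 h at 37 °C, 5% CO2, no shaking. LC-MS/MS quantification; Papp from receiver accumulation, efflux ratio = Papp(BA)/Papp(AB). Lucifer yellow rejection checked monolayer integrity.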
(In general: Caco-2 monolayers are a common model of the intestinal barrier.)

In data set [2] the target is T1, KIT-NanoLuc fusion in HEK293 cells (Homo sapiens, UniProt P10721).
T1 construct: expressed in transfected cells; host or cells: HEK293, transient transfection
The data set can be described thus: NanoBRET cellular target engagement assay, KIT. In kind it is cell-based. As to the method:
(§1) Exemplary compounds were tested for their ability to inhibit target engagement of KIT or CSF-1R kinases through competitive displacement of a Nano-Luc luciferase kinase fusion in HEK293 cells.
(§2) The NanoBRET target engagement assay employs an energy transfer technique designed to measure molecular proximity in living cells. The assay measures the apparent affinity of test compounds by competitive displacement of the NanoBRET tracer, reversibly bound to a NanoLuc luciferase-kinase fusion construct in cells. The intracellular binding affinity and selectivity are physiologically relevant and fundamental to the pharmacological mechanism of the compounds. While biochemical and biophysical assays identify the kinase inhibitors in vitro, the NanoBRET target engagement assay serves to determine the direct interaction of the compounds binding to target kinases in cells.
(§3) HEK293 cells transiently expressing NanoLuc-DDR1 fusion vector were seeded into 384-well plates and treated with the Tracer K-4 and compound for 1 hour. The BRET signal was measured on an EnVision 2104 multilabel microplate reader. NanoBRET Target Engagement Assay in HEK293 cells transiently transfected with KIT and CSF1R-NanoLuc Fusion Vector. HEK293 cells were transfected with […] KIT or CSF1R-NanoLuc Fusion Vector and […] carrier DNA. The transfected cells were treated with test compounds (starting at 10 μM, 10-dose with 3-fold dilution) and reference compound (desatinib) (starting at 1 μM, 10-dose with 3-fold dilution). Percent inhibition due to compound activity was calculated to determine IC50.
For orientation: BRET reads energy transfer from a luciferase to a nearby fluorophore.

For data set [3], the target named is T2, CSF1R-NanoLuc fusion in HEK293 cells (Homo sapiens, UniProt P07333).
T2 construct: expressed in transfected cells; host or cells: HEK293, transient transfection
The data set can be described thus: NanoBRET cellular target engagement assay, CSF-1R. In kind it is cell-based. Here is the method:
as §1, §2, §3

Data set [4] concerns the target T3, MDR1 (Homo sapiens, UniProt P08183).
T3 construct: host or cells: MDCKII (canine kidney) cells
The data set can be described thus: Permeability in MDR1-MDCKII cells. It is filed as in vitro ADME. The settings on record: dog, MDCK-MDR1, pH 7.4. The method, boiled down:
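MDR1-MDCKII monolayers grown 4-7 days; compounds 2.00 μM in HBSS/10 mM Hepes pH 7.4, A-to-B and B-to-A in duplicate, 2.5 h at 37 °C. LC-MS/MS quantitation gives Papp and efflux ratio; monolayer integrity checked by lucifer yellow rejection.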

T1 sequence (P10721 26-976): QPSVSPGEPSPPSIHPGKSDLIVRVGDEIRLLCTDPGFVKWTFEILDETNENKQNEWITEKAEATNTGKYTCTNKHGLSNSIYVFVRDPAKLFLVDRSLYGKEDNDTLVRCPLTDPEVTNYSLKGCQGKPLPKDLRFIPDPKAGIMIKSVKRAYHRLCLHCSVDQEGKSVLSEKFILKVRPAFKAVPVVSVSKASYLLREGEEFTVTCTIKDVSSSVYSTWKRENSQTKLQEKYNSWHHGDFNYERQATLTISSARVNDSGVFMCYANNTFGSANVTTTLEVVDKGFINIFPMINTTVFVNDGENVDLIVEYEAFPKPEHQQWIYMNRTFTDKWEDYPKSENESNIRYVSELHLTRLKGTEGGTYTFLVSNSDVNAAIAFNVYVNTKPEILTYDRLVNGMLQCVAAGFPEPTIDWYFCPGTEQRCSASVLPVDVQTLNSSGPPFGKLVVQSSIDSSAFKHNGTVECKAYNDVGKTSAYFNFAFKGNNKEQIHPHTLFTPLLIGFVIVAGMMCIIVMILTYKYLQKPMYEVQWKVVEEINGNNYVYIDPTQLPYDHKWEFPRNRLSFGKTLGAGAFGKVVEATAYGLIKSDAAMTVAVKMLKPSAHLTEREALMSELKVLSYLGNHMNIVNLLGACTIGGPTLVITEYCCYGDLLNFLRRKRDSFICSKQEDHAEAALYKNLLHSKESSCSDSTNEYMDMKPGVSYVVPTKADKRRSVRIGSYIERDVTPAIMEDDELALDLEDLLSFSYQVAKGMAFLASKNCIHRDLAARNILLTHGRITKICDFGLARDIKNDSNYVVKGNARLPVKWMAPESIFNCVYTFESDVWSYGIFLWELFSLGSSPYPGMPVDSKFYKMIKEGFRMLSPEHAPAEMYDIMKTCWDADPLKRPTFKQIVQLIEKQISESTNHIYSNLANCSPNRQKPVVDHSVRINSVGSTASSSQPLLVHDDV
T2 sequence (P07333 20-972): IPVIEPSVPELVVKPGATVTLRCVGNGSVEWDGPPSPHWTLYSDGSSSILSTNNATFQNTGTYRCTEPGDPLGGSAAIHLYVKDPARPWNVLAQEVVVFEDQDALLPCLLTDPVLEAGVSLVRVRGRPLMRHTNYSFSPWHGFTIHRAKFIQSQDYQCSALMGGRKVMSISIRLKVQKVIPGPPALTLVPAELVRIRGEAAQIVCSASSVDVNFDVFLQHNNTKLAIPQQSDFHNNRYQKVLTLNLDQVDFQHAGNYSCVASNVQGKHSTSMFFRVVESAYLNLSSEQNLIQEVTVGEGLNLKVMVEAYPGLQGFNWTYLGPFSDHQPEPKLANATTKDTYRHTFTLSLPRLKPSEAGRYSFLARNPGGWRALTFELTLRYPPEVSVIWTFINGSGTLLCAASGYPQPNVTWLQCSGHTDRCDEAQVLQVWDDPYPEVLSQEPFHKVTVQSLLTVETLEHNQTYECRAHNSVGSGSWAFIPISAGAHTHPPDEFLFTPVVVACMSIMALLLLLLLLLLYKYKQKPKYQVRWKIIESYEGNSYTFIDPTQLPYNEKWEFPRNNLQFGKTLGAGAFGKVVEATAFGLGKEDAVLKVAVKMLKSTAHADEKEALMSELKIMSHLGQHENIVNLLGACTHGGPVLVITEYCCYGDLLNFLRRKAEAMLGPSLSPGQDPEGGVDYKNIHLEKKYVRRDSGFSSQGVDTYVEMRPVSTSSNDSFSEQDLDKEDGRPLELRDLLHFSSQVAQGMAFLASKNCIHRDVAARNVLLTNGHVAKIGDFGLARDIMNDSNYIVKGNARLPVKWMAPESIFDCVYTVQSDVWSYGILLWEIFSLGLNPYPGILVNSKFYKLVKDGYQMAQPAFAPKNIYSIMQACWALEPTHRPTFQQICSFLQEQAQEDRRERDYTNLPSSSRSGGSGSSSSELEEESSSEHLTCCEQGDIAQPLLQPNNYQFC
T3 sequence (P08183 whole entry): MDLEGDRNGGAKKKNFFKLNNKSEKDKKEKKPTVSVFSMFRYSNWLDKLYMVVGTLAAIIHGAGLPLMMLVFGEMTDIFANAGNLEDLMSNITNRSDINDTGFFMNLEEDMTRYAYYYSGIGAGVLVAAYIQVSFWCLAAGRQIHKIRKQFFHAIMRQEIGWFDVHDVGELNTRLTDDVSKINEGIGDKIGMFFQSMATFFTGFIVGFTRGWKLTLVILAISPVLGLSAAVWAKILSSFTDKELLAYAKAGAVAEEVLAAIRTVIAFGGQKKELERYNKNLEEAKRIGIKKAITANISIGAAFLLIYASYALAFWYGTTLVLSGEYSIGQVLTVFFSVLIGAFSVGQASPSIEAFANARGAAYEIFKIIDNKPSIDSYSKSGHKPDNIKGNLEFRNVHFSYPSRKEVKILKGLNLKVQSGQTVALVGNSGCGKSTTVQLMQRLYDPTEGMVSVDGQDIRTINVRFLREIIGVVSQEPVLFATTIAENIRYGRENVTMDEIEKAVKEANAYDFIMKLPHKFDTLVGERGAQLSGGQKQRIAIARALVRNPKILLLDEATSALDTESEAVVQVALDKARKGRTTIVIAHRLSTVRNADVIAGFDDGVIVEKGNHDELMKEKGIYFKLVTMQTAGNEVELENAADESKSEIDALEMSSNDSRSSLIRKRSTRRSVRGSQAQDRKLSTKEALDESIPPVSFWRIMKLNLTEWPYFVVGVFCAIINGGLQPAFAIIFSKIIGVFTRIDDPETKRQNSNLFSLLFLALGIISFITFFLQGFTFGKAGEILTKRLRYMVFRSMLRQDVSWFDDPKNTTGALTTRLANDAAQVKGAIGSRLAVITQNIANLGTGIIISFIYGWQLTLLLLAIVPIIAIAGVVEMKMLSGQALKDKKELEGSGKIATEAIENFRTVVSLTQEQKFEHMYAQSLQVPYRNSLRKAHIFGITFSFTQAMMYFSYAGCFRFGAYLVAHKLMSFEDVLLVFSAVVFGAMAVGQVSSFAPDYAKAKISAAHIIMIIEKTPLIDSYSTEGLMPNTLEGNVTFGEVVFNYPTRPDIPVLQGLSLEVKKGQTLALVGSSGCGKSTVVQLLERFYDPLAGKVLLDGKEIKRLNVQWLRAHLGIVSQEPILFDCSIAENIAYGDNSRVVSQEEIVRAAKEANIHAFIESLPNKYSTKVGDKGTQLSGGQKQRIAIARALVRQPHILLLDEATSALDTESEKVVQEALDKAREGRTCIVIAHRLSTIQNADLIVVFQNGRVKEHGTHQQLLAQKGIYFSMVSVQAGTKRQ

Regarding `Cc1ccc(-c2noc([C@H]3C[C@@H]3F)n2)cc1NC(=O)c1cnc2cc(COCC(C)(C)O)ccn12` [Compound I-71, N-[5-[5-[(1R,2S)-2-fluorocyclopropyl]-1,2,4-oxadiazol-3-yl]-2-methyl-phenyl]-7-[(2-hydroxy-2-methyl-propoxy)methyl]imidazo[1,2-a]pyridine-3-carboxamide], the efflux ratio at 2 h, 2 μM in data set [1] (Caco-2, pH 7.4) was determined as 6.78. The Papp A→B at 2 h, 2 μM in data set [1] (pH 7.4, Caco-2, apical to basolateral) was 6.65 ×10⁻⁶ cm/s. Also, the IC50 was not above 0.1 µM in data set [2] and more than 10 µM in data set [3]. For the same compound, the efflux ratio at 2.5 h, 2 μM in data set [4] (MDCKII-MDR1) worked out at 5.15. In data set [4] (MDCKII-MDR1, apical to basolateral), the Papp A→B at 2.5 h, 2 μM came out at 5.94 ×10⁻⁶ cm/s.

With `Cc1ccc(-c2noc(CC(O)C(F)F)n2)cc1NC(=O)c1cnc2ccccn12` (stereo not shown) [Compound I-114], the IC50 in data set [2] was not above 0.1 µM; in data set [3], more than 10 µM.

As to `Cc1ccc(-c2noc([C@H]3C[C@@H]3F)n2)cc1NC(=O)c1cnc2cc(OC(C)C)ccn12` [Compound I-88], the IC50 in data set [2] was not above 0.1 µM; in data set [3] it was more than 10 µM.

What is called efflux ratio is the permeability from basolateral to apical divided by that in the opposite direction, in the common usage. For orientation: Papp A→B means the apparent permeability from the apical to the basolateral side of a cell layer. As a reminder, the IC50 is the midpoint of a concentration-inhibition curve. A higher IC50 goes with lower potency.

These data come from patent US20240254119A1 (THIRD HARMONIC BIO, INC., priority 2022, published 2024).
